The test system of data set [1] is pDC. Briefly: CXCL16 expression on pDC after preincubation of PBMC with GM-6001. In kind it is cell-based, human. As to conditions: 50 μM, 30 minutes preincubation of PBMC. As for the experimental part: (§1) FIGS. 7A-7B are a plot and a bar graph showing the metalloproteinase inhibitor GM-6001 enhances CXCL16 expression and subsequent cytokine production induced by D ODN. PBMC were preincubated in the absence (open bars) or presence (filled bars) of GM-6001 (50 μM) for 30 minutes, washed and then stained for CXCL16 expression on pDC (see FIG. 7A) or stimulated with 1 μM of K or 3 μM D ODN for 24 hours (FIG. 7B). Cytokine production (IL-6 for K ODN and IFN-α D ODN) was assessed from culture supernatants using ELISA. Individual results from six different PBMC are shown.
(§2) CXCL16 expressed on the cell surface is cleaved by the metalloproteinase ADAM-10 (Abel et al., J Immunol. 2004 172(10):6362-72, 2004; Gough et al., J Immunol. 172(6):3678-85, 2004). […] Based on the observation that pDC expressing high levels of CXCL16 were more responsive to D ODN stimulation, human PBMC were incubated with GM6001 followed by K or D ODNs.

Data set [2] deals with PBMC. Briefly: Cytokine production of PBMC preincubated with GM-6001 and stimulated with K or D ODN (ELISA). In kind it is cell-based, human. As to conditions: 50 μM preincubation, 24 hours. As for the experimental part:
as §1, §2

A short description of data set [3]: Cytokine induction by D ODN (statement in the description). In kind it is cell-based. The following applies: no test described.
Data set [4] deals with pDC. Briefly: Binding of FITC conjugated CpG ODN to purified pDC in the presence of scavenger receptor ligands (flow cytometry). In kind it is cell-based, human. The following applies: 50 μg/ml inhibitor, preincubated 20 min at 4° C., mean ± S.D. As for the experimental part:
(§3) FIGS. 3A-3D are bar graphs and plots showing the effect of scavenger receptor ligands on the binding and activity of CpG ODN. FIG. 3A is a bar graph of the results obtained when purified pDC were preincubated (20 minutes at 4° C.) with medium or with 50 μg/ml each of inhibitors followed by addition of 1 μM FITC conjugated ODN. Mean fluorescence intensity representing binding of FITC-ODN was assessed using flow cytometry. Results represent the mean±S.D of three independent experiments. FIG. 3B is a bar graph showing D ODN induced IFN-α from peripheral blood mononuclear cells (PBMC). Open bars: medium; dotted bars: chondroitin sulfate; right-striped bars: fucoidan; left-striped bars: dextran sulfate Production of IFN-α from PBMC (in the absence or presence of 50 μg/ml inhibitors) was determined by ELISA from 24 hour culture supernatants. FIG. 3C is a plot showing K ODN induced TNF-α production in pDC (in the absence or presence of 50 μg/ml dextran sulfate). TNF-α production was determined using intracytoplasmic cytokine staining (representative plots of three independent experiments). FIG. 3D is a plot showing the results obtained when purified pDC were incubated with 1 μM each of K or with 3 μM D ODN in the absence or presence of 50 μg/ml dextran sulfate. Upregulation of HLA-DR/CD54 was determined 24 hours later using flow cytometry.
To evaluate whether a scavenger receptor (SR) played a role in D ODN uptake and signaling, the ability of dextran sulfate and fucoidan (classical scavenger receptor ligands) to block the binding of CpG ODN to pDC was evaluated (Table 2 and Supplementary FIG. 3A).
Background: A flow cytometer gives signals particle by particle.

Data set [5] has as its system PBMC. The data set can be described thus: CpG ODN induced cytokine secretion (TNF-α, IFN-α) in the absence or presence of scavenger receptor ligands. The format is cell-based, human. The following applies: 50 μg/ml inhibitor. As for the experimental part: as §3, with “FIG. 3A is a bar graph of the results obtained when purified pDC were preincubated (20 minutes at 4° C.) with medium or with 50 μg/ml each of inhibitors followed by addition of 1 μM FITC conjugated ODN.” left out, “FIG. 3B is a bar graph showing D ODN induced IFN-α from peripheral blood mononuclear cells (PBMC).” left out, “FIG. 3C is a plot showing K ODN induced TNF-α production in pDC (in the absence or presence of 50 μg/ml dextran sulfate).” left out

Data set [6] deals with pDC. Briefly: Upregulation of HLA-DR/CD54 on purified pDC by CpG ODN in the absence or presence of dextran sulfate. The format is cell-based, human. As to conditions: 24 hours, 50 μg/ml inhibitor. As for the experimental part:
as §3, with “FIG. 3A is a bar graph of the results obtained when purified pDC were preincubated (20 minutes at 4° C.) with medium or with 50 μg/ml each of inhibitors followed by addition of 1 μM FITC conjugated ODN.” left out, “FIG. 3B is a bar graph showing D ODN induced IFN-α from peripheral blood mononuclear cells (PBMC).” left out, “FIG. 3C is a plot showing K ODN induced TNF-α production in pDC (in the absence or presence of 50 μg/ml dextran sulfate).” left out

Where [7] appears, read: D ODN: 1 μM FITC conjugated ODN.

Bounds are passed on as bounds.

Turning to `CNC(=O)[C@H](Cc1c[nH]c2ccccc12)NC(=O)[C@@H](CC(=O)NO)CC(C)C` [GM6001], the “expression of CXCL16 on pDC” value with pDC [1] is reported as “increased”. Further, the “effect on cells stimulated with K ODN (IL-6 production)” value in the data set with PBMC [2] (1 μM K ODN) was “no effect”. In the data set with PBMC [2] (3 μM D ODN), the “increase of D ODN responsiveness of pDCs (IFN-α production)” value was found to be 2 fold.
Take “DV113: D ODN GGTGCATCGATACAGGGGGG (SEQ ID NO: 6) (DNA, backbone not given here; underlined bases phosphodiester, further chemistry not fully specified)”: in data set [3], the “induction of IFN-γ and IFN-α” value is reported as “high levels”.
As to Dextran sulfate, the “% inhibition of binding to pDC” value in the data set with pDC [4] (setting [7]) is listed as > 50%; in the data set on pDC [4] (D ODN: 1 μM FITC conjugated ODN, listed as Dextran Sulfate), 65.02 ± 5.8%; with pDC [4] (K ODN: 1 μM FITC conjugated ODN) it was “not”; in the data set on pDC [4] (K ODN: 1 μM FITC conjugated ODN, listed as Dextran Sulfate) it was 23.2 ± 8.8%. The “% inhibition of cytokine secretion” value in the data set on PBMC [5] (D ODN induced IFN-α production from PBMC, ELISA) stood at 90.3 ± 8.4%; in the data set on PBMC [5] (K ODN induced TNF-α production, intracytoplasmic staining), 5.8 ± 2.3%. In addition, the results for the “% inhibition in the generation of HLA-DR/CD54 double positive cells” value in the data set on pDC [6] (1 μM K ODN) and with pDC [6] (3 μM D ODN) were 0.8 ± 1.8% and 92.3 ± 5.8%, respectively.
Consider chondroitin sulfate, for which, in the data set on pDC [4] (setting [7]), the “% inhibition of binding to pDC” value was “not”.

Source of the values: patent publication US7892569B2, “Methods of altering an immune response induced by CpG oligodeoxynucleotides” (The United States of America as represented by the …, priority 2005, dated 2011).
